In patent publication US8288379B2, “Thia-triaza-cyclopentazulenes” (Boehringer Ingelheim International GmbH, priority 2009, dated 2012):

These compounds were tested against T1, FRAP1 (mTOR) kinase (Homo sapiens, UniProt P42345) (assay: Inhibition of mTOR-induced p-4E-BP1 phosphorylation (TR-FRET mTOR Activity Kit; Invitrogen)). Conditions: 400 nM GFP-4E-BP1 substrate, ~150 ng/mL mTOR, one hour at room temperature.
T1 construct: purchased Invitrogen PV4753
Assay type: biochemical
Text: Inhibition of mTOR-Induced p-4E-BP1 Phosphorylation (TR-FRET mTOR Activity Kit; Invitrogen)
• GFP-4E-BP1 substrate; Invitrogen order no. PV4759 • Lanthascreen Tb-anti-p4E-BP1 (pThr46) Antibody Kit; Invitrogen order no. PV4758 • FRAP1 (mTOR) kinase; Invitrogen order no. […] Preparation of Reagents: Note: Thaw and keep mTOR, the substrate, ATP, and the antibody on ice prior to making working dilutions. Working dilutions of these components can be kept at room temperature for short periods of time the day of use. 1. Add 2 ml of 5× Assay Buffer to 8 ml water to prepare 10 ml of 1× Assay Buffer. Note: The concentration of 1× Assay Buffer is 50 mM HEPES pH 7.5, 0.01% Polysorbate 20, 1 mM EGTA, and 10 mM MnCl2. 2. Prepare Antibody/EDTA Solution by first adding 2.75 n1 of Tb-anti p4E-BP1 Antibody to 2397 n1 of LanthaScreen™ TR-FRET Dilution Buffer. Then, add 100 n1 of 0.5 M EDTA. 3. Prepare 4× Substrate/Enzyme Solution by first adding 72 n1 of GFP-4E-BP1 (22 nM) to 926 n1 of 1× Assay Buffer. Then, add 1.6 n1 of mTOR (0.45 mg/mL). 4. Prepare ATP Solution by adding 3.2 n1 of 10 mM ATP to 1997 n1 of 1× Assay Buffer. Serial Dilution of Inhibitors (16 Point Curve): Note: It is recommended that inhibitors be serially diluted in DMSO, then diluted to a 4× working concentration with 1× Assay Buffer. The below procedure describes dilution of compounds in a 96-well format prior to transfer to a 384-well format for kinase assays. This procedure calls for dilution of the compounds in 2 adjacent columns of a 96-well plate, which upon transfer to a single column of a 384-well plate with an 8-channel pipette will align the samples in order of concentration. 1. Dispense 40 n1 of DMSO to two adjacent columns of a 96 well plate per compound (e.g. columns 1 and 2). 2. Add 10 n1 of inhibitor stock (10 mM) to the first well of the first column (A1) and mix. 3. Remove 10 n1 from A1 and transfer to the adjacent well in the next column (B1) and mix. 4. Remove 10 n1 from B1 and transfer to the next well in the first column (B2) and mix. 5. Repeat this dilution pattern through well H1 and leave the last well (H2) as DMSO only. 6. Remove 4 n1 of diluted compounds and add to 96 n1 of 1× Assay Buffer in a 96-well plate making 4× compound dilutions. Kinase Reaction: 1. Add 2.5 μl of 4× compound dilutions from the first column of the 96-well plate to every other well of column 1 of a 384-well plate with an 8-channel pipette. Repeat for columns 2 and 3. 2. Add 2.5 n1 of 4× compound dilutions from the second column of the 96-well plate to the empty wells of column 1 of the 384-well plate with an 8-channel pipette. Repeat for columns 2 and 3. Note: This procedure aligns the compound dilutions in order of concentration. 3. Add 2.5 n1 of 4× Enzyme/Substrate Solution to all columns 1-6. 4. Preincubate for 30 min. at RT (shaker). 5. Add 5 n1 of ATP Solution to all wells to start reactions. 6. Shake the assay plate on a plate shaker for 30 seconds. 7. Incubate the assay plate for one hour at room temperature (20-25° C.). Stop Step and Fluorescence Detection: 1. Add 10 n1 of Antibody/EDTA Solution to each well in columns 1-9. 2. Shake the assay plate on a plate shaker for 30 seconds. 3. Incubate the assay plate for one hour at room temperature (20-25° C.). 4. Measure the GFP (FRET) and terbium (reference) emission signals on a fluorescence plate reader (e.g. Perkin Elmer Envision). Data Analysis: 1. Calculate the emission ratio for each sample by dividing the GFP (FRET) signal by the terbium (reference) signal. 2. Plot the concentration of each compound versus the emission ratio. Determine the concentration of compound required to reach 50% of the maximum signal (IC50). Determination of IC50 values can be obtained by curve fitting (sigmoidal dose response, variable slope) using Prism software from GraphPad). Inhibition of Proliferation: CyQuant PC-3 Description: […]

T1 sequence (P42345 1360-2549 limits assumed): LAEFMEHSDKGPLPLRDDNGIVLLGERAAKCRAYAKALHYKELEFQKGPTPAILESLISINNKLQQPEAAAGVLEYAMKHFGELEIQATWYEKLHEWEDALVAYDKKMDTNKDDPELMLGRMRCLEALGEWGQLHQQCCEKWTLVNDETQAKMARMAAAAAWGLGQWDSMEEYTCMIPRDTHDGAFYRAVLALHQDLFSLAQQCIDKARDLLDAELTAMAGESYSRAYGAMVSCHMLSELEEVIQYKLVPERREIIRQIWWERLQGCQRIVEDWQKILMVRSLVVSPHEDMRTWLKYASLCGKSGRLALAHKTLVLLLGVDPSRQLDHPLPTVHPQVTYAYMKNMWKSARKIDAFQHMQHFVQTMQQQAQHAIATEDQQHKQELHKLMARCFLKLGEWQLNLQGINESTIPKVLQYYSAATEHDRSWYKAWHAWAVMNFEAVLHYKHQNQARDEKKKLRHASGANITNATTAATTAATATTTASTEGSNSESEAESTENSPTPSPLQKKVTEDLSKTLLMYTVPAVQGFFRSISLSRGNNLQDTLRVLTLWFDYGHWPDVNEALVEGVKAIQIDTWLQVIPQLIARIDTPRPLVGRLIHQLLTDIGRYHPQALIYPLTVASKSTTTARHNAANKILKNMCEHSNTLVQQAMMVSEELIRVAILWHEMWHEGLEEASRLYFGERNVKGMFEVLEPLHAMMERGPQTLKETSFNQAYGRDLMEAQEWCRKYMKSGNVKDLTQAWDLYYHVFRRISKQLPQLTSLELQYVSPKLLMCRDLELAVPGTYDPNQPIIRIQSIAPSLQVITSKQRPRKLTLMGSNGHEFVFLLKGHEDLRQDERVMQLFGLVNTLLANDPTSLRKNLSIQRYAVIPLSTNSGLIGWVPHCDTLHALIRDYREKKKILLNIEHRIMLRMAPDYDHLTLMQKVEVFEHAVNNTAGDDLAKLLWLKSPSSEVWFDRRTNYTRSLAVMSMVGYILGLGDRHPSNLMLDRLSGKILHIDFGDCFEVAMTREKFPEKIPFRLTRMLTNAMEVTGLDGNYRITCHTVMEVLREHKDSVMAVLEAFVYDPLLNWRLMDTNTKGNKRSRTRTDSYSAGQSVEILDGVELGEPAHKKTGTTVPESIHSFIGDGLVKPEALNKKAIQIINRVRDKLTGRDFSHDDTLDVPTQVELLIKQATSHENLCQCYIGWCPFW

Row | SMILES | IC50 [µM]
1 | COCCN(C)C(=O)c1nn(C(C)C)c2c1CCCc1nc(NC(C)=O)sc1-2 [Example E-08] | ≥ 20
2 | CCNc1ccc(-c2nn(C(C)(C)C)c3c2CCCc2nc(NC(C)=O)sc2-3)cn1 [Example B-123] | 1.14
3 | CC(=O)Nc1nc2c(s1)-c1c(c(C(=O)N(C)CCO)nn1C(C)C)CCC2 [Example E-05] | ≥ 20
4 | Cc1ccccc1-n1nc(-c2ccc(N)nc2)c2c1-c1sc(NC(=O)CN)nc1CCC2 [Example B-102] | 0.032
5 | CNC(=O)c1nn(C(C)C)c2c1CCCc1nc(NC(C)=O)sc1-2 [Example E-01] | 5.18
6 | COCC(=O)Nc1nc2c(s1)-c1c(c(-c3ccc(C)nc3)nn1-c1ccccc1C)CCC2 [Example E-13] | 0.524
7 | COCCNC(=O)Nc1nc2c(s1)-c1c(c(-c3ccc(C)nc3)nn1-c1ccccc1C)CCC2 [Example D-06] | 1.6
8 | CCNc1ccc(-c2nn(CCN3CCOCC3)c3c2CCCc2nc(NC(C)=O)sc2-3)cn1 [Example B-124] | 0.994
9 | CC(=O)Nc1nc2c(s1)-c1c(c(-c3cncn3C)nn1-c1ccccc1)CCC2 [Example B-94] | 8.36
10 | CC(=O)Nc1nc2c(s1)-c1c(c(-c3ccc(C)nc3)nn1-c1cccnc1)CCC2 [Example B-95] | 0.074
11 | COCCC(=O)Nc1nc2c(s1)-c1c(c(-c3ccc(C)nc3)nn1-c1ccccc1C)CCC2 [Example E-14] | 0.698
12 | CCNc1ccc(-c2nn(-c3cccnc3C)c3c2CCCc2nc(NC(=O)N(C)C)sc2-3)cn1 [Example B-141] | 0.512
13 | CNC(=O)Nc1nc2c(s1)-c1c(c(-c3ccc(NC)nc3)nn1C(C)C)CCC2 [Example B-144, 1-[1-Isopropyl-3-(6-methylamino-pyridin-3-yl)-1,4,5,6-tetrahydro-9-thia-1,2,7-triaza-cyclopent[e]azulen-8-yl]-3-methyl-urea] | 0.113
14 | CC(=O)Nc1nc2c(s1)-c1c(c(C(=O)N(C)C)nn1C(C)C)CCC2 [Example E-02] | 16
15 | CNC(=O)Nc1nc2c(s1)-c1c(c(-c3ccc(NC)nc3)nn1-c1ccccc1C)CCC2 [Example B-142, 1-Methyl-3-[3-(6-methylamino-pyridin-3-yl)-1-o-tolyl-1,4,5,6-tetrahydro-9-thia-1,2,7-triaza-cyclopent[e]azulen-8-yl]-urea] | 0.092
16 | CN(C)C(=O)Nc1nc2c(s1)-c1c(c(-c3ccc(N)nc3)nn1-c1ccccc1F)CCC2 [Example B-97] | 0.175
17 | CCNc1ccc(-c2nn(-c3ccccc3C)c3c2CCCc2nc(NC(=O)COC)sc2-3)cn1 [Example B-100, N-[3-(6-Ethylamino-pyridin-3-yl)-1-o-tolyl-1,4,5,6-tetrahydro-9-thia-1,2,7-triaza-cyclopenta[e]azulen-8-yl]-2-methoxy-acetamide] | 0.286
18 | CC(=O)Nc1nc2c(s1)-c1c(c(-c3ccc(N)nc3)nn1CCN1CCOCC1)CCC2 [Example B-105] | 1.39
19 | CCNc1ccc(-c2nn(-c3ccccc3Br)c3c2CCCc2nc(NC(C)=O)sc2-3)cn1 [Example B-74] | 0.168
20 | CCNc1ccc(-c2nn(-c3ccccc3C)c3c2CCCc2nc(N)sc2-3)cn1 [Example C-03] | 3.34
21 | CNc1ccc(-c2nn(CCN3CCOCC3)c3c2CCCc2nc(NC(=O)N(C)C)sc2-3)cn1 [Example B-98] | 0.737
22 | CNc1ccc(-c2nn(-c3cccnc3)c3c2CCCc2nc(NC(C)=O)sc2-3)cn1 [Example B-84] | 0.05

Row | SMILES | IC50 [µM]
23 | CCNc1ccc(-c2nn(C(C)COC)c3c2CCCc2nc(NC(C)=O)sc2-3)cn1 (centres unmarked) [Example B-126] | 0.084
24 | Cc1ccc(-c2nn(-c3ccccc3C)c3c2CCCc2nc(NC(=O)NCCN(C)C)sc2-3)cn1 [Example D-07] | 1.28
25 | CC(=O)Nc1nc2c(s1)-c1c(c(-c3cncn3C)nn1-c1ccccc1C)CCC2 [Example B-93] | 1.11
26 | CCNc1ccc(-c2nn(C(C)C)c3c2CCCc2nc(NC(=O)NC)sc2-3)cn1 [Example B-140] | 0.182
27 | Cn1ncc2c1-c1sc(-c3cccnc3)nc1CCC2 [Example G-02] | ≥ 20
28 | CCOC(=O)CCCNC(=O)c1nn(C(C)C)c2c1CCCc1nc(NC(C)=O)sc1-2 [Example E-12] | 5.41
29 | CC(=O)Nc1nc2c(s1)-c1c(c(-c3c[nH]cn3)nn1CCN(C)C)CCC2 [Example B-110] | 0.84
30 | CNC(=O)Nc1nc2c(s1)-c1c(c(-c3ccc(C)nc3)nn1-c1ccccc1C)CCC2 [Example D-05] | 0.358
31 | COCCNC(=O)c1nn(C(C)C)c2c1CCCc1nc(NC(C)=O)sc1-2 [Example E-07] | 11.4
32 | CCc1ccccc1-n1nc(-c2ccc(NC)nc2)c2c1-c1sc(NC(C)=O)nc1CCC2 [Example B-88, N-[1-(2-Ethyl-phenyl)-3-(6-methylamino-pyridin-3-yl)-1,4,5,6-tetrahydro-9-thia-1,2,7-triaza-cyclopenta[e]azulen-8-yl]-acetamide] | 0.269
33 | CC(=O)Nc1nc2c(s1)-c1c(c(C(=O)N(C)CCN(C)C)nn1C(C)C)CCC2 [Example E-03] | 4.85
34 | CC(=O)Nc1nc2c(s1)-c1c(c(C(=O)Nc3ccccc3)nn1C(C)C)CCC2 [Example E-09] | 8.45
35 | CC(=O)Nc1nc2c(s1)-c1c(c(C(=O)Nc3cc[nH]n3)nn1C(C)C)CCC2 [Example E-10] | 1.58
36 | COC(=O)CCNC(=O)c1nn(C(C)C)c2c1CCCc1nc(NC(C)=O)sc1-2 [Example E-11] | 6.26
37 | CNc1ccc(-c2nn(-c3ccccc3C)c3c2CCCc2nc(NC(=O)COC)sc2-3)cn1 [Example B-107, 2-Methoxy-N-[3-(6-methylamino-pyridin-3-yl)-1-o-tolyl-1,4,5,6-tetrahydro-9-thia-1,2,7-triaza-cyclopenta[e]azulen-8-yl]-acetamide] | 0.427
38 | CCNc1ccc(-c2nn(-c3ccncc3C)c3c2CCCc2nc(N)sc2-3)cn1 [Example C-07] | 2.19
39 | Cc1ccc(-c2nn(-c3ccccc3C)c3c2CCCc2nc(NC(N)=O)sc2-3)cn1 [Example D-04] | 0.402
40 | CC(=O)Nc1nc2c(s1)-c1c(c(C(=O)NCCCO)nn1C(C)C)CCC2 [Example E-06] | 18
41 | CC(=O)Nc1nc2c(s1)-c1c(c(C(=O)NCCO)nn1C(C)C)CCC2 [Example E-04] | 4.89
42 | COCC(=O)Nc1nc2c(s1)-c1c(c(-c3ccc(N)nc3)nn1-c1ccccc1C)CCC2 [Example B-104, N-[3-(6-Amino-pyridin-3-yl)-1-o-tolyl-1,4,5,6-tetrahydro-9-thia-1,2,7-triaza-cyclopenta[e]azulen-8-yl]-2-methoxy-acetamide] | 0.072
43 | CC(=O)Nc1nc2c(s1)-c1c(c(-c3c[nH]c(C)n3)nn1CCN(C)C)CCC2 [Example B-119] | 1.88
44 | CC(C)n1ncc2c1-c1scnc1CCC2 [Example C-08, 1-Isopropyl-1,4,5,6-tetrahydro-9-thia-1,2,7-triaza-cyclopent[e]azulene] | 2.44
